Measured values published in patent US8129527B2, “Analogs of dehydrophenylahistins and their therapeutic use” (Nereus Pharmacuticals, Inc., priority 2006, dated 2012).
In brackets after ≈: the same amount, converted by molar mass. Like-named read-outs stand apart in the source and are kept apart here. Marks after values point to notes of the source that are not given here.

Legend:
[1] = test system: MCF7 cells, GFP-alpha-tubulin; assay: Analysis of microtubule dynamics, time-lapse microscopy; assay type: cell-based, human
[2] = test system: MCF7 human breast carcinoma cells; assay: Mitotic progression (mitotic index); assay type: cell-based; conditions: 20 hours, read-out: Mitotic block Ave. IC50 ± sd
Procedure: The fraction of cells in mitosis at a given drug concentration (mitotic index) was determined in the breast cancer cell line MCF7. Cells were plated at a density of 3×10^4 cells/ml in six-well plates. After 24 hours, cells were incubated in the absence or presence of drug over a range of concentrations (1 nM to 1 μM) for 20 hours. […] Cells were fixed with 10% formalin in PBS overnight at 37° C., permeabilized in methanol for 10 minutes, and stained with 4,6-diamidino-phenylindole (DAPI) to visualize nuclei. Stained cells were spread on coverslips in Vectashield mounting media (Burlingame, Calif.) and sealed onto slides with nail polish. Fluorescence microscopy was used to determine mitotic indices.

[3] = test system: MAP-rich microtubules; assay: Microtubule mean length distributions, transmission electron microscopy; assay type: biochemical, bovine; conditions: in words
Procedure: Transmission electron microscopy was used to determine the mean length distribution of microtubules in the absence or presence of tested agent. At 75 minutes and prior to sedimentation, 10 μl aliquots from the polymer mass experiments were fixed by dilution into 290 μl PEM100-buffered 0.2% glutaraldehyde. Thirty microliters of fixed sample was settled onto formvar-coated 150 ICG mesh electron microscope grids for 90 seconds. Excess sample was wicked off with Whatman filter paper. Thirty microliters of cytochrome C (1 mg/ml) was applied for 30 seconds to enhance protofilament resolution and facilitate negative staining. Uranyl acetate (1.5%) was applied for 20 seconds and the excess was wicked off Grids were viewed in a Jeol electron microscope-1200 EX11 at 2000× and 30,000× magnification. The Zeiss MOPIII was used to determine microtubule length distributions and mean lengths for at least 100 microtubules per sample.

[4] = test system: OVCAR-3 (human ovarian tumor); assay: Tumor panel screen cytotoxicity (Example 10A); assay type: cell-based; conditions: OVCAR-3 Ovary
From the text: (§1) Cells were maintained at subconfluent densities in their respective culture media.

[5] = test system: HT29 (human colon tumor); assay: Tumor panel screen cytotoxicity (Example 10A); assay type: cell-based; conditions: HT-29 Colon
From the text: as §1

[6] = test system: NCI-H292 (human non-small cell lung tumor); assay: Tumor panel screen cytotoxicity (Example 10A); assay type: cell-based
From the text: as §1

[7] = test system: PC3 (human prostate tumor); assay: Tumor panel screen cytotoxicity (Example 10A); assay type: cell-based; conditions: PC-3 Prostate
From the text: as §1

[8] = test system: CCD-27sk (normal human fibroblast); assay: Tumor panel screen cytotoxicity (Example 10A); assay type: cell-based; conditions: Homo sapiens; CCD-27sk Fibroblast
From the text: as §1

[9] = test system: MDA-MB-231 (human breast tumor); assay: Tumor panel screen cytotoxicity (Example 10A); assay type: cell-based; conditions: MDA-MB-231 Breast
From the text: as §1

[10] = test system: B16-F10 (murine melanoma); assay: Tumor panel screen cytotoxicity (Example 10A); assay type: cell-based
From the text: as §1

[11] = Tumor panel screen cytotoxicity (Example 10A); assay type: cell-based, human; conditions: human, CCD-27sk normal fibroblast cells; CCD-27sk Fibroblast; maximum cytotoxic effect
From the text: as §1

[12] = test system: MES-SA (Taxol Sensitive) human uterine sarcoma; assay: Drug resistant cell line pair, cytotoxicity (Example 10B); assay type: cell-based
From the text: (§2) 1) Human Uterine Sarcoma Tumor Cell Line Pair: MES-SA (Taxol Sensitive) and MES-SA/Dx5 (Taxol Resistant).

[13] = test system: MES-SA/Dx5 (Taxol Resistant) human uterine sarcoma; assay: as above; assay type: cell-based
From the text: as §2

[14] = test system: HuVEC; assay: Action on microtubule function, α-tubulin staining; conditions: 2 μM, thirty minutes exposure
[15] = test system: HL-60 (Mitoxantrone-Sensitive) human acute promyelocytic leukemia; assay: Drug resistant cell line pair, cytotoxicity (Example 10B); assay type: cell-based; conditions: HL-60 Sensitive
From the text: (§3) 2) Human Acute Promyelocytic Leukemia Cell Line Pair: HL-60 (Mitoxantrone-Sensitive) and HL-60/MX-2 (Mitoxantrone-Resistant)

[16] = test system: MCF-7 human breast tumor; assay: MCF-7 Human Breast Tumor Xenograft Model; assay type: in vivo, nude mice; conditions: in combination with taxotere
Procedure: Animals used were (exceptions are indicated for individual studies): female nude mice (nu/nu) between 5 and 6 weeks of age (˜20 g, Harlan); group size was 9-10 mice per group unless otherwise indicated.
(§4) Selected novel compounds were administered as monotherapy via the intraperitoneal (i.p.) route at the doses indicated for the individual study; for the combination studies the selected reference chemotherapy agents were injected 15-30 min prior to the compound.
(§5) Saline dilutions are used to achieve the injection concentrations used for the reference compounds.
Female nude mice (˜20 g) were implanted s.c. with 21-day release estrogen (0.25 mg) pellets 24 hours prior to the s.c. implantation with MCF-7 tumor fragments (harvested from s.c. tumors in nude mice hosts). The study then proceeded as described for the HT-29 model, using taxotere as the standard chemotherapy agent.
In this model unless otherwise noted for the individual study, the novel compounds were injected via the intraperitoneal route daily on Days 1-5, inclusive (qdx5); taxotere was administered intravenously on Days 1, 3 and 5 (qodx3).
The doses of the compounds were administered on Days 1, 2, 3, 4, and 7; Taxotere was administered on Days 1, 3 and 7.

[17] = test system: Candida albicans; assay: Antifungal susceptibility testing, broth dilution (MIC/MFC); assay type: cell-based; conditions: Candida albicans; C. albicans 90028; read-out: MIC
In short: (§6)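 Tested against two isolates per species (one for C. glabrata). After MIC, fungicidal concentration determined by plating 0.1 μl from MIC and each higher concentration.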

[18] = test system: Aspergillus fumigatus; assay: as above; assay type: cell-based; conditions: Aspergillus fumigatus; for MIC: read-out: MIC
In short: as §6

[19] = test system: Candida glabrata; assay: as above; assay type: cell-based; conditions: Nakaseomyces glabratus; C. glabrata; read-out: MIC
In short: as §6

[20] = test system: HL-60/MX-2 (Mitoxantrone-Resistant); assay: Drug resistant cell line pair, cytotoxicity (Example 10B); assay type: cell-based, human; conditions: Homo sapiens, HL60/MX2; HL-60 Resistant (HL-60/MX-2)
From the text: as §3

[21] = test system: HT-29 human colon tumor; assay: HT-29 Human Colon Tumor Xenograft Model; assay type: in vivo
Procedure: as §4, §5
Animals were implanted subcutaneously (s.c.) by trocar with fragments of HT-29 tumors harvested from s.c. growing tumors in nude mice hosts. When the tumor size reached 5 mm×5 mm (about 10-17 days) the animals were matched into treatment and control groups. Mice were weighed twice weekly and tumor measurements were obtained using calipers twice weekly, starting on Day 1. The tumor measurements were converted to estimated mg tumor weight using the formula (W^2×L)/2. When the estimated tumor weight of the control group reached an average of 1000 mg the mice were weighed, sacrificed and the tumor removed.

[22] = Table 28, concentration effecting 25% of the maximal mitotic block
[23] = Table 29, concentration effecting 50% of the maximal mitotic block

Compound: COc1ccc(/C=C\c2cc(OC)c(OC)c(OC)c2)cc1O [CA4, Combretastatin A4]
- % time spent, Attenuation [1, 22]: 39.50%
- % time spent, Growth [1, 22]: 35.31%
- % time spent, Shortening [1, 22]: 25.19%
- Freq. of Catastrophe [1, 22]: 1.52 min⁻¹
- Freq. of Rescue [1, 22]: 1.90 min⁻¹
- Mean duration, Attenuation [1, 22]: 0.45 min
- Mean duration, Growth [1, 22]: 0.27 min
- Mean duration, Shortening [1, 22]: 0.21 min
- Mean rates, Growth [1, 22]: 10.59 μm/min
- Mean rates, Shortening [1, 22]: 40.21 μm/min
- Dyn. ([1]; Table 28, dynamicity, concentration effecting 25% of the maximal mitotic block): 13.87 μm/min
- % time spent, Attenuation [1, 23]: 36.23%
- % time spent, Growth [1, 23]: 43.64%
- % time spent, Shortening [1, 23]: 20.13%
- Dynamicity [1, 23]: 10.91 μm/min
- Freq. of Catastrophe [1, 23]: 1.09 min⁻¹
- Freq. of Rescue [1, 23]: 2.79 min⁻¹
- Mean duration, Attenuation [1, 23]: 0.55 min
- Mean duration, Growth [1, 23]: 0.33 min
- Mean duration, Shortening [1, 23]: 0.22 min
- Mean rates, Growth [1, 23]: 11.21 μm/min
- Mean rates, Shortening [1, 23]: 29.88 μm/min
- MT dynamic instability ([1]; concentrations effecting 25% or 50% of maximal mitotic block): did not have a measurable effect on MT dynamic instability
- IC50 [2]: 0.0054 ± 0.0007 µM
- MT nucleation [3]: did not affect MT nucleation

Compound: CC(C)(C)c1[nH]cnc1/C=C1\NC(=O)[C@H](Cc2ccccc2)NC1=O [t-butyl-phenylahistin]
- IC50 ([4]; Homo sapiens): > 20 µM
- % Cytotoxicity Mean ([4]; maximum cytotoxic effect): 37%
- % Cytotoxicity Mean ([5]; maximum cytotoxic effect): 88%
- IC50 ([5]; Homo sapiens): 0.42 µM
- IC50 ([6]; Homo sapiens): 0.384 µM
- % Cytotoxicity Mean ([6]; maximum cytotoxic effect): 65%
- IC50 ([7]; Homo sapiens): 0.174 µM
- % Cytotoxicity Mean ([7]; maximum cytotoxic effect): 59.5%
- IC50 [8]: > 20 µM
- IC50 ([9]; Homo sapiens): 0.387 µM
- % Cytotoxicity Mean ([9]; maximum cytotoxic effect): 65.5%
- IC50 ([10]; Mus musculus): 0.736 µM
- % Cytotoxicity Mean ([10]; maximum cytotoxic effect): 74%
- cytotoxicity at 48 h [11]: 45%
- IC50 ([12]; Homo sapiens, MES-SA, CsA Pretreat, Studies II-III in separate lines): 0.162 µM
- IC50 ([12]; Homo sapiens, MES-SA, No CsA, Studies I-III in separate lines): 0.144 µM
- IC50 ([12]; No CsA, Studies I-III in separate lines): 0.122 µM
- IC50 ([13]; Homo sapiens, MES-SA/Dx5, MES-SA/DX5 Resistant, CsA Pretreat, Studies II-III in separate lines): 0.622 µM
- IC50 ([13]; Homo sapiens, MES-SA/Dx5, MES-SA/DX5 Resistant, No CsA, Studies I-III in separate lines): 0.825 µM
- IC50 ([13]; MES-SA/DX5 Resistant, No CsA, Studies I-III in separate lines): 0.694 µM
- potency in the resistant MES-SA/DX5 line vs the sensitive line ([13]; in words): only slightly reduced
- microtubule depolymerization in HuVEC cells [14]: induced microtubule depolymerization
- IC50 [15]: 0.255 µM
- effect on estimated tumor growth [16]: significant potentiation of taxotere
- MIC [17]: > 32 µg/mL
- MIC ([18]; A. fumigatus isolate #1): > 16 µg/mL
- MFC ([18]; A. fumigatus isolate #2): 0.125 µg/mL (≈ 0.369 µM)
- MIC ([18]; A. fumigatus isolate #2): < 0.03 µg/mL
- MIC [19]: > 32 µg/mL
- IC50 [20]: 0.175 µM
- Comments (combination with CPT-11) ([21]; NPI compound + CPT-11 100 ip qwx3, study and dose as in the line): Synergy
- NPI-Compound Result TGI % ([21]; Study 2139, monotherapy 30 mg/kg ip q3dx5): No Effect
- Combination Results TGI % ([21]; Study 2139, t-butyl-phenylahistin 30 mg/kg ip q3dx5 + CPT-11 100 ip qwx3): 77.7 *, # %
- Exceed NCI Criterion (TGI ≧ 58%) ([21]; which treatment group exceeds the criterion, NPI compound, CPT-11 100 ip qwx3 or combination, study and dose as in the line): Combination
